Reference: US6878536B2, “Phosphoriboxyl-pyrophosphate synthetase polypeptide” (BASF, priority 1997, dated 2005)

Test system: glutamine-PRPP amidotransferase from Ashbya gossypii
Assay: Activity of glutamine-PRPP amidotransferase (Messenger and Zalkin method)
Type: biochemical
Details: wild-type enzyme, FIG. 1
Description: The glutamine-PRPP amidotransferase from Ashbya gossypii is likewise inhibited by AMP or GMP (see Figure). The activity of glutamine-phosphoribosyl-pyrophosphate amidotransferase from Ashbya gossypii can be measured as described in Messenger and Zalkin (1979) J. Biol. Chem. 254, pages 3382-3392.
This can be shown, for example, by expressing the enzymes in Ashbya gossypii (see Example 11).
Measurement of the activity of Gln-PRPP amidotransferase from A. gossypii and of modified forms of the enzyme as a function of the concentration of adenosine 5′-monophosphate (AMP) and guanosine 5′-monophosphate (GMP).

SMILES	inhibition of glutamine-PRPP amidotransferase from Ashbya gossypii
Nc1ncnc2c1ncn2[C@@H]1O[C@H](COP(=O)(O)O)[C@@H](O)[C@H]1O [AMP, adenosine 5′-monophosphate]	inhibited
Nc1nc2c(ncn2[C@@H]2O[C@H](COP(=O)(O)O)[C@@H](O)[C@H]2O)c(=O)[nH]1 [GMP, guanosine 5′-monophosphate]	inhibited
